# Results: US20240116857A1 (St. Louis University, priority 2022, published 2024)
# System: E. coli BW25113
# Experiment: MIC, 2-fold broth dilution, E. coli BW25113
# Type: cell-based, Escherichia coli
# Details: Escherichia coli; E. coli BW25113; asterisk in column 1-10; read-out: MIC, μM 1-10
row,SMILES,MIC
1,"C[n+]1ccc(Nc2ccc(NC(=O)c3ccc(C(=O)Nc4ccc(Nc5cc[n+](C)cc5)cc4)c(Br)c3)cc2)cc1 [Example 87, 4,4′-((((2-bromoterephthaloyl)bis(azanediyl))bis(4,1-phenylene))bis(azanediyl))bis(1-methylpyridin-1-ium)]",1 to 10 µM
2,"C#CC[N+](C)(C)c1ccc(NC(=O)c2ccc(-c3ccc(C(=O)Nc4ccc([N+](C)(C)C)c(F)c4)cc3)cc2)cc1F [Example 94, 4-(4′-((4-(dimethyl(prop-2-yn-1-yl)ammonio)-3-fluorophenyl)carbamoyl)-[1,1′-biphenyl]-4-carboxamido)-2-fluoro-N,N,N-trimethylbenzenaminium]",1 to 10 µM
3,"C#CCCCCOc1cc(NC(=O)c2ccc(-c3ccc(C(=O)Nc4ccc([N+](C)(C)C)c(F)c4)cc3)cc2)ccc1[N+](C)(C)C [Example 96, 2-fluoro-4-(4′-((3-(hex-5-yn-1-yloxy)-4-(trimethylammonio)phenyl)carbamoyl)-[1,1′-biphenyl]-4-carboxamido)-N,N,N-trimethylbenzenaminium]",1 to 10 µM
4,"COc1cc(NC(=O)c2ccc(-c3ccc(C(=O)Nc4ccc([N+](C)(C)C)c(F)c4)cc3)cc2)ccc1[N+](C)(C)C [Example 98, 2-fluoro-4-(4′-((3-methoxy-4-(trimethylammonio)phenyl)carbamoyl)-[1,1′-biphenyl]-4-carboxamido)-N,N,N-trimethylbenzenaminium]",1 to 10 µM
5,"C#CCCOc1cc(NC(=O)c2ccc(-c3ccc(C(=O)Nc4ccc([N+](C)(C)C)c(F)c4)cc3)cc2)ccc1[N+](C)(C)C [Example 103, 2-(but-3-yn-1-yloxy)-4-(4′-((3-fluoro-4-(trimethylammonio)phenyl)carbamoyl)-[1,1′-biphenyl]-4-carboxamido)-N,N,N-trimethylbenzenaminium]",1 to 10 µM
6,C#CCCCCCCCCOc1cc(NC(=O)c2ccc(-c3ccc(C(=O)Nc4ccc([N+](C)(C)C)c(F)c4)cc3)cc2)ccc1[N+](C)(C)C [Example 116],1 to 10 µM
7,CN(C)c1ccc(NC(=O)c2ccc(-c3ccc(C(=O)Nc4ccc(N5CCCCC5)cc4)cc3)cc2)cc1 [Example 127],1 to 10 µM
8,COc1cc(NC(=O)c2ccc(-c3ccc(C(=O)Nc4ccc(N5CCCCC5)cc4)cc3)cc2)ccc1N(C)C [Example 128],1 to 10 µM
9,C[N+](C)(C)c1ccc(NC(=O)c2ccc(-c3ccc(C(=O)Nc4ccc([N+]5(C)CCCCC5)cc4)cc3)cc2)cc1F [Example 129],1 to 10 µM

# Same assay, conditions: Escherichia coli; E. coli BW25113; asterisk in column 10-50; read-out: MIC, μM 10-50
row,SMILES,MIC
1,"C[n+]1ccc(Oc2ccc(NC(=O)c3ccc(C(=O)Nc4ccc(Oc5cc[n+](C)cc5)cc4)c([N+](=O)[O-])c3)cc2)cc1 [Example 84, 4,4′-((((2-nitroterephthaloyl)bis(azanediyl))bis(4,1-phenylene))bis(oxy))bis(1-methylpyridin-1-ium)]",10 to 50 µM
2,"C[N+](C)(C)c1ccc(NC(=O)c2ccc(-c3ccc(C(=O)Nc4ccc([N+](C)(C)C)c(Br)c4)cc3)cc2)cc1Br [Example 86, 4,4′-(([1,1′-biphenyl]-4,4′-dicarbonyl)bis(azanediyl))bis(2-bromo-N,N,N-trimethylbenzenaminium)]",10 to 50 µM
3,"C[n+]1ccc(Oc2ccc(NC(=O)c3ccc(C(=O)Nc4ccc(Oc5cc[n+](C)cc5)cc4)c(N)c3)cc2)cc1 [Example 89, 4,4′-((((2-aminoterephthaloyl)bis(azanediyl))bis(4,1-phenylene))bis(oxy))bis(1-methylpyridin-1-ium)]",10 to 50 µM
4,C#CCCC[N+](C)(C)c1ccc(NC(=O)c2ccc(-c3ccc(C(=O)Nc4ccc([N+](C)(C)C)c(F)c4)cc3)cc2)cc1F [Example 118],10 to 50 µM

# Same assay, conditions: Escherichia coli; E. coli BW25113; asterisk in column >50; read-out: MIC, μM >50
row,SMILES,MIC
1,"O=C(Nc1ccc(Oc2ccncc2)cc1)c1ccc(C(=O)Nc2ccc(Oc3ccncc3)cc2)c([N+](=O)[O-])c1 [Example 83, 2-nitro-N^1,N^4-bis(4-(pyridin-4-yloxy)phenyl)terephthalamide]",> 50 µM
2,"C[n+]1ccc(C(=O)Nc2ccc(-c3ccc(NC(=O)c4cc[n+](C)cc4)cc3)cc2)cc1 [Example 85, 4,4′-(([1,1′-biphenyl]-4,4′-diylbis(azanediyl))bis(carbonyl))bis(1-methylpyridin-1-ium)]",> 50 µM
3,"Cc1cc(C(=O)Nc2ccc(N(C)C)c(F)c2)ccc1-c1ccc(C(=O)Nc2ccc(N(C)C)c(F)c2)cc1 [Example 90, N^4,N^4′-bis(4-(dimethylamino)-3-fluorophenyl)-2-methyl-[1,1′-biphenyl]-4,4′-dicarboxamide]",> 50 µM
4,"Cc1cc(C(=O)Nc2ccc([N+](C)(C)C)c(F)c2)ccc1-c1ccc(C(=O)Nc2ccc([N+](C)(C)C)c(F)c2)cc1 [Example 91, 4,4′-((2-methyl-[1,1′-biphenyl]-4,4′-dicarbonyl)bis(azanediyl))bis(2-fluoro-N,N,N-trimethylbenzenaminium)]",> 50 µM
5,"O=C(NCc1ccncc1)c1ccc(-c2ccc(C(=O)NCc3ccncc3)cc2)cc1 [Example 92, N^4,N^4′-bis(pyridin-4-ylmethyl)-[1,1′-biphenyl]-4,4′-dicarboxamide]",> 50 µM
6,"C#CCN(C)c1ccc(NC(=O)c2ccc(-c3ccc(C(=O)Nc4ccc(N(C)C)c(F)c4)cc3)cc2)cc1F [Example 93, N^4-(4-(dimethylamino)-3-fluorophenyl)-N^4′-(3-fluoro-4-(methyl(prop-2-yn-1-yl)amino)phenyl)-[1,1′-biphenyl]-4,4′-dicarboxamide]",> 50 µM
7,"C#CCCCCOc1cc(NC(=O)c2ccc(-c3ccc(C(=O)Nc4ccc(N(C)C)c(F)c4)cc3)cc2)ccc1N(C)C [Example 95, N^4-(4-(dimethylamino)-3-(hex-5-yn-1-yloxy)phenyl)-N^4′-(4-(dimethylamino)-3-fluorophenyl)-[1,1′-biphenyl]-4,4′-dicarboxamide]",> 50 µM
8,"COc1cc(NC(=O)c2ccc(-c3ccc(C(=O)Nc4ccc(N(C)C)c(F)c4)cc3)cc2)ccc1N(C)C [Example 97, N^4-(4-(dimethylamino)-3-fluorophenyl)-N^4′-(4-(dimethylamino)-3-methoxyphenyl)-[1,1′-biphenyl]-4,4′-dicarboxamide]",> 50 µM
9,"C#CCCOc1cc(NC(=O)c2ccc(-c3ccc(C(=O)Nc4ccc(N(C)C)c(F)c4)cc3)cc2)ccc1N(C)C [Example 99, N^4-(3-(but-3-yn-1-yloxy)-4-(dimethylamino)phenyl)-N^4′-(4-(dimethylamino)-3-fluorophenyl)-[1,1′-biphenyl]-4,4′-dicarboxamide]",> 50 µM
10,"C[n+]1ccc(CNC(=O)c2ccc(-c3ccc(C(=O)NCc4cc[n+](C)cc4)cc3)cc2)cc1 [Example 100, 4,4′-((([1,1′-biphenyl]-4,4′-dicarbonyl)bis(azanediyl))bis(methylene))bis(1-methylpyridin-1-ium)]",> 50 µM
11,"CN(C)c1ccc(CNC(=O)c2ccc(-c3ccc(C(=O)NCc4ccc(N(C)C)cc4)cc3)cc2)cc1 [Example 101, N^4,N^4′-bis(4-(dimethylamino)benzyl)-[1,1′-biphenyl]-4,4′-dicarboxamide]",> 50 µM
12,"C[N+](C)(C)c1ccc(CNC(=O)c2ccc(-c3ccc(C(=O)NCc4ccc([N+](C)(C)C)cc4)cc3)cc2)cc1 [Example 102, 4,4′-((([1,1′-biphenyl]-4,4′-dicarbonyl)bis(azanediyl))bis(methylene))bis(N,N,N-trimethylbenzenaminium)]",> 50 µM
13,C#CCN(C)c1ccc(NC(=O)c2ccc(-c3ccc(C(=O)Nc4ccc([N+](C)(C)C)c(F)c4)cc3)cc2)cc1F [Example 104],> 50 µM
14,COC(=O)Cn1cc(CCC[N+](C)(C)c2ccc(NC(=O)c3ccc(-c4ccc(C(=O)Nc5ccc([N+](C)(C)C)c(F)c5)cc4)cc3)cc2F)nn1 [Example 106],> 50 µM
15,COC(=O)Cn1cc(CCOc2cc(NC(=O)c3ccc(-c4ccc(C(=O)Nc5ccc([N+](C)(C)C)c(F)c5)cc4)cc3)ccc2[N+](C)(C)C)nn1 [Example 107],> 50 µM
16,COC(=O)Cn1cc(C[N+](C)(C)c2ccc(NC(=O)c3ccc(-c4ccc(C(=O)Nc5ccc([N+](C)(C)C)c(F)c5)cc4)cc3)cc2F)nn1 [Example 108],> 50 µM
17,CN(C)c1ccc(NC(=O)c2ccc(-c3ccc(C(=O)Nc4ccc(N5CCCCC5)cc4)cc3)cc2)cc1F [Example 111],> 50 µM
18,CN(C)c1ccc(NC(=O)c2ccc(-c3ccc(C(=O)Nc4ccc(N(C)C)c(F)c4)cc3)cc2)cc1 [Example 112],> 50 µM
19,CN(C)c1ccc(NC(=O)c2ccc(-c3ccc(C(=O)Nc4ccc(N(C)C)c(F)c4)cc3C(F)(F)F)cc2)cc1F [Example 114],> 50 µM
20,CN(C)c1ccc(NC(=O)c2ccc(-c3ccc(C(=O)Nc4ccc(N(C)C)c(Cl)c4)cc3)cc2)cc1F [Example 115],> 50 µM
21,C#CCCCCCCCCOc1cc(NC(=O)c2ccc(-c3ccc(C(=O)Nc4ccc(N(C)C)c(F)c4)cc3)cc2)ccc1N(C)C [Example 117],> 50 µM
22,C#CCCCC[N+](C)(C)c1ccc(NC(=O)c2ccc(-c3ccc(C(=O)Nc4ccc([N+](C)(C)C)c(F)c4)cc3)cc2)cc1F [Example 121],> 50 µM
23,C#CCCCOc1cc(NC(=O)c2ccc(-c3ccc(C(=O)Nc4ccc([N+](C)(C)C)c(F)c4)cc3)cc2)ccc1[N+](C)(C)C [Example 122],> 50 µM
24,C#CCCCOc1cc(NC(=O)c2ccc(-c3ccc(C(=O)Nc4ccc(N(C)C)c(F)c4)cc3)cc2)ccc1N(C)C [Example 123],> 50 µM
25,C#CCCCN(C)c1ccc(NC(=O)c2ccc(-c3ccc(C(=O)Nc4ccc(N(C)C)c(F)c4)cc3)cc2)cc1F [Example 124],> 50 µM
26,CN(C)c1ccc(NC(=O)c2ccc(-c3ccc(C(=O)Nc4ccc([N+](C)(C)C)c(F)c4)cc3)cc2)cc1F [Example 125],> 50 µM
27,C#CCCCCN(C)c1ccc(NC(=O)c2ccc(-c3ccc(C(=O)Nc4ccc(N(C)C)c(F)c4)cc3)cc2)cc1F [Example 126],> 50 µM
28,C[N+](C)(C)c1ccc(NC(=O)c2ccc(-c3ccc(C(=O)Nc4ccc([N+](C)(C)C)c(F)c4)cc3)cc2)cc1 [Example 130],> 50 µM
29,C[N+](C)(C)c1ccc(NC(=O)c2ccc(-c3ccc(C(=O)Nc4ccc([N+](C)(C)C)c(Cl)c4)cc3)cc2)cc1F [Example 131],> 50 µM
